The values that follow come from patent US5620892A, “Strain of Saccharomyces cerevisiae expressing the gene encoding potassium transporter minK” (priority 1993, dated 1997).

Experiment [1] concerns the target T1, HminK (Homo sapiens, UniProt P15382, S38G).
T1 construct: mRNA in Xenopus oocytes (A3)
Put plainly: Inhibition of growth in agar, HminK strain. Also on record: key: + indicates compound produced a zone on inhibition. Format: cell-based. The settings on record: cultures grown in inducing medium (2% galactose) embedded in agar; scored after 48-hour incubation at 30° C. The procedure: (§1) Cultures of strains containing the pGAL::HminK plasmid or the pGAL::TRK1 plasmid were grown in inducing media (2% galactose) at 30° C. with vigorous aeration. Inhibitors were added to cultures over a range of concentrations. Samples were removed at various intervals and the optical density at 600 nm was determined. Growth measurements were normalized to values obtained for growth in the absence of drug and are plotted as Relative Growth versus concentration (FIG. 6). Similar cultures grown in inducing medium were embedded in agar and assessed for growth in presence of the compounds listed in Table 1. Plates were scored after a 48-hour incubation at 30° C.; "+" denotes growth inhibition.

Experiment [2] concerns the target T1, HminK. In words: Challenge of the pGAL::HminK-transformed double mutant on agar plates at 100 mM and 0.1 mM KCl. It counts as cell-based. The conditions noted are these: clofilium 100 μM; 100 mM and 0.1 mM potassium chloride. The protocol:
(§2) In another experiment, the double mutant was transformed with pGAL vector including either TRK1 or HminK as described above. The transformed strains were then separately challenged with clofilium (100 μM) and dofetilide […] at 100 mM and 0.1 mM of potassium chloride.
(§3) Cultures of K^+ transporter mutant strains containing either pYES2 vector, pGAL::TRK1 or pGAL::HminK plasmids were grown in inducing media (2% galactose) at 30° C. with vigorous aeration. A. Serial dilutions of each culture were spotted onto agar plates containing either 100 mM or 0.1 mM. KCl. B. Serial dilutions of strains containing pGAL::TRK1 or pGAL::HminK plasmids were spotted onto agar plates containing 100 μM clofilium or 1 μM dofetilide at both KCl concentrations. All plates were incubated at 30° C. and scored after 2 days.

Experiment [3] concerns the target T2, TRK1 (Saccharomyces cerevisiae, UniProt P12685).
T2 sequence (P12685 1-1235): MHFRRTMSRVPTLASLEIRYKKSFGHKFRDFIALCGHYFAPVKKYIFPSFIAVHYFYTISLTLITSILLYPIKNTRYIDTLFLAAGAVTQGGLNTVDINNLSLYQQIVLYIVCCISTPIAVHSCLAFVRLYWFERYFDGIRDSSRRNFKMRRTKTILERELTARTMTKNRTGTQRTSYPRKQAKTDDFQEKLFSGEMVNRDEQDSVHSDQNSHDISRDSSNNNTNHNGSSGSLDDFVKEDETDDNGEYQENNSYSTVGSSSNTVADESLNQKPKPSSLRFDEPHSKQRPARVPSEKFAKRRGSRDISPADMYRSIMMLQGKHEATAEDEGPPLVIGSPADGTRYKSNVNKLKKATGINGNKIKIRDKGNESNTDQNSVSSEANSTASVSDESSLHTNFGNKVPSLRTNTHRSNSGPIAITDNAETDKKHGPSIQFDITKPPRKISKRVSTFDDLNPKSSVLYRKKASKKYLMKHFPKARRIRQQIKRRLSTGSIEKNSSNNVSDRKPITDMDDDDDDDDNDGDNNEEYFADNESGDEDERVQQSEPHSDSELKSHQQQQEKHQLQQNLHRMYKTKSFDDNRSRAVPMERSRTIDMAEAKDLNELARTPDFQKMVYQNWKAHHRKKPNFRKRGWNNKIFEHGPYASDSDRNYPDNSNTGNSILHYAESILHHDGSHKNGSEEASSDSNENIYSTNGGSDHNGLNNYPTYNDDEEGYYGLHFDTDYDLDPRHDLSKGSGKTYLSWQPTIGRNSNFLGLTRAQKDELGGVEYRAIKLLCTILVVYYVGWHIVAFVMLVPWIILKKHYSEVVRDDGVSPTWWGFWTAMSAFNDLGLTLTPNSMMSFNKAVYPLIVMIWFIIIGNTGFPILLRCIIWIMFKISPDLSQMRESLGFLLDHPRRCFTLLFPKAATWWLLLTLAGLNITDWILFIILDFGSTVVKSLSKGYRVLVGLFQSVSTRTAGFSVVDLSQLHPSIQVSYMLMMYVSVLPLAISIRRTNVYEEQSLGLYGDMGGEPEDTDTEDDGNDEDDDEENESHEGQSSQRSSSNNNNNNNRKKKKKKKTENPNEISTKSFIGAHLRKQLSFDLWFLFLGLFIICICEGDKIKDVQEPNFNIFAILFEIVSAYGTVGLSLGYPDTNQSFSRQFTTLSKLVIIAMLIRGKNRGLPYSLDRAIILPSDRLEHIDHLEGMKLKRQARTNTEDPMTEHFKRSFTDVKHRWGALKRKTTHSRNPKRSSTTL
In words: Challenge of the pGAL::TRK1-transformed double mutant on agar plates at 100 mM and 0.1 mM KCl. Format: cell-based. The settings on record: clofilium 100 μM; 100 mM and 0.1 mM potassium chloride. The procedure:
as §2, §3

The target of experiment [4] is T1, HminK. Put plainly: Potassium ion currents of HminK mRNA transcripts expressed in Xenopus oocytes. The conditions noted are these: Xenopus oocytes expressing the HminK transcripts; clofilium 50 μM. Format: cell-based. The protocol: For further verification, mRNA transcripts were expressed in Xenopus oocytes. The expression products caused potassium ion currents that are blocked by clofilium (50 μM) and kinetically indistinguishable from HminK currents reported in the literature. […] Ben Efraim et al., Biochemistry 32: 2371-2377 (1993).

For another experiment, the system named is IKr. The conditions noted are these: rapid, rectifying component of the delayed rectifier; literature; cited from earlier work.
The next experiment relates to IKs. The settings on record: slow component of the delayed rectifier; literature; cited from earlier work.
The next experiment deals with minK. The conditions noted are these: literature and personal communication; cited from earlier work.
Experiment [5] addresses T2, TRK1. Put plainly: Inhibition of growth in agar, TRK1 strain. Format: cell-based. Also noted: key: + indicates compound produced a zone on inhibition. The conditions noted are these: cultures grown in inducing medium (2% galactose) embedded in agar; scored after 48-hour incubation at 30° C. The protocol: as §1

In the case of `CC[N+](CC)(CC)CC` [TEA Cl], the “Inhibition in agar HminK strain” value at HminK [1] was “+”.
As to `CCCCCCC[N+](CC)(CC)CCCCc1ccc(Cl)cc1` [clofilium], on HminK [1], the “Inhibition in agar HminK strain” value is “+”. The “Block of potassium uptake in the HminK strain” value on HminK [2] is on record as “blocked potassium uptake in the HminK strain”. Moreover, on TRK1 [3], the “Block of potassium uptake in the TRK1 strain” value is listed as “not in the TRK1 strain”. In addition, the “Block of potassium ion currents” value at HminK [4] is “blocked”. Also, the “Block of IKr” value in the experiment with IKr is “blocked”. Besides, in the experiment on IKs, the “Block of IKs” value is listed as “blocked”. The “Blockage of minK expressed in Xenopus oocytes” value in the experiment with minK was “blockage”.
Regarding `CC(C)NCC(O)c1ccc(NS(C)(=O)=O)cc1` (stereo not drawn) [d-sotalol], in the experiment on IKr, the “Block of IKr” value is given as “blocked”. Besides, in the experiment on IKs, the “Block of IKs” value is reported as “not”.
On to `CN(CCOc1ccc(NS(C)(=O)=O)cc1)CCc1ccc(NS(C)(=O)=O)cc1` [dofetilide], for which, in the experiment with IKr, the “Block of IKr” value is reported as “blocked”. Also, the “Block of IKs” value in the experiment on IKs is reported as “not”.
As for `C=C[C@H]1C[N@@]2CC[C@H]1C[C@@H]2[C@@H](O)c1ccnc2ccc(OC)cc12` [quinidine], the “Inhibition in agar HminK strain” value on HminK [1] was “+”. On TRK1 [5], the “Inhibition in agar TRK1 strain” value is listed as “+”.
